Measured values as given in US5741785A, “Heterocyclic compounds, their preparation and use” (Novo Nordisk A/S, priority 1994, dated 1998).

Key:
[1] = target: AMPA type receptors; experiment: 3H-AMPA binding (Test 1), rat cerebral cortical membrane homogenate; settings: 5 nM 3H-AMPA, 0° C., 30 min, pH 7.1, Hill analysis; read-out: IC50 (50% displacement of the specific binding of 3H-AMPA), TEST 1
Text: AMPA receptor binding may be studied by using ^3 H-AMPA as radioligand.
The pharmacological properties of the compounds of the present invention can be illustrated by determining their capability for displacing radioactively labelled 2-amino-3-hydroxy-5-methyl-4-isoxazolepropionic acid (AMPA) from the AMPA type receptors.
The displacement activity of the compounds may be shown by determining the IC50 value which represents the concentration (μM) which causes a displacement of 50% of the specific binding of ^3 H-AMPA.
^3 H-AMPA binding (Test 1)
500/μl of thawed rat cerebral cortical membrane homogenate in Tris-HCl (30 mM), CaCl2 (2.5 mM) and KSCN (100 mM) pH 7.1 were incubated at 0° C. for 30 min. with 25 μl ^3 H-AMPA (5 nM final concentration) and the test compound and buffer. Nonspecific binding was determined by incubation with L-glutamic acid (600/μM final concentration). The binding reaction was terminated by adding 5 ml of ice-cold buffer followed by filtration through Whatman GF/C glass fibre filters and 2×5 ml wash with ice-cold buffer. Bound radioactivity was measured by scintillation counting. IC50 was determined by Hill analysis of at least four concentrations of test compound.

[2] = test system: quisqualic acid stimulated spreading depression in chicken retina; experiment: Spreading depression (Test 2), quisqualic acid stimulated, chicken retina; format: cell-based; settings: Gallus gallus, quisqualate 1 μg/ml, 15 min preincubation, 26° C., read-out: IC50 (50% maximal inhibition of quisqualic acid stimulated spreading depression), TEST 2
Text: The influence of glutamic acid analogues on secondary effects of glutamate receptor interactions may be studied in vitro by using the phenomenon of spreading depression in chicken retina. Such experiments will provide information as to the efficacies (agonist/antagonist) of the test substances. This is in contrast to binding studies, which only provide information on the affinities of the compounds for the receptor.
The pharmacological properties of the compounds of the present invention can be illustrated by determining their capability for displacing radioactively labelled 2-amino-3-hydroxy-5-methyl-4-isoxazolepropionic acid (AMPA) from the AMPA type receptors. […]
The eyes were initially incubated in normal P.S.S. for 15-30 min. and then transferred to P.S.S. containing quisqualate (1 μg/ml). In this "stimulating solution" S.D.s start spontaneously usually from the edge of the retina, and can be easily observed by eye, The time taken for an S.D. to start in each eye was measured.
After a further 15 min. of incubation in normal P.S.S. the eyes were transferred to normal P.S.S, containing the test compound and incubated for 15 min. […] The time taken for an S.D. to start in each eye was measured again. The eyes were then placed back in normal P.S.S. and after 15 min. the time taken for S.D. to start was measured again, in order to assess the degree of recovery from any drug effects. […]

[3] = test system: AMPA receptor; settings: reported in J. Med. Chem., 35, 3319-3324, 1992; cited from earlier work

| IC50 [1] [nM] | IC50 [2] [nM] | SMILES | affinity for the AMPA receptor [3] |
| --- | --- | --- | --- |
| 450 | 1100 | Cc1c(C(=O)O)nc2c(=O)[nH]c3cc(C(F)(F)F)ccc3n12 [Example 2, 2-Carboxy-1-methyl-7-trifluoromethylimidazo[1,2-a]quinoxalin-4(5H)-one] |  |
|  |  | O=c1[nH]c2cc(Cl)c(Cl)cc2n2ccnc12 [7,8-dichloro-imidazo[1,2-a]quinoxaline-4(5H)-one] | reasonable affinity |
